How the values were obtained:
[1] = molecular target: T1, Amine oxidase [flavin-containing] B (Homo sapiens, UniProt P27338); assay: Inhibition of human recombinant MAOB at 50 uM by fluorimetric method
T1 sequence (P27338 whole entry): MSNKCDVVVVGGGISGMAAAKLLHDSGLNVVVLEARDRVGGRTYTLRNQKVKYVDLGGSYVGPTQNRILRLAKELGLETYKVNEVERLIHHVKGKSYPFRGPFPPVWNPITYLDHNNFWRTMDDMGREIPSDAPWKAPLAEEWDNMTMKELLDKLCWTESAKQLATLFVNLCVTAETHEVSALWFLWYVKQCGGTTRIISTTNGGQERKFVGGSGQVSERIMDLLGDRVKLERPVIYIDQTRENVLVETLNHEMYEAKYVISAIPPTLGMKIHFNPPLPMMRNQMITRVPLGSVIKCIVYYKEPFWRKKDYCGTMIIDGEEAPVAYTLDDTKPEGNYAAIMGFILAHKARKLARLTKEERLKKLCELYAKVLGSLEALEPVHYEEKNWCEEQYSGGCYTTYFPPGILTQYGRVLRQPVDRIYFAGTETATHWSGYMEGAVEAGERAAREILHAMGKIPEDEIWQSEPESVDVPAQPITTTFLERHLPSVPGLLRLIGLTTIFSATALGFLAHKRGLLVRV

Homo sapiens = organism: Homo sapiens; assay: Selectivity ratio of IC50 for human recombinant MAOA to IC50 for human recombinant MAOB
[2] = molecular target: T2, Amine oxidase [flavin-containing] A (Homo sapiens, UniProt P21397); assay: Inhibition of human recombinant MAOA by fluorimetric method
T2 sequence (P21397 whole entry): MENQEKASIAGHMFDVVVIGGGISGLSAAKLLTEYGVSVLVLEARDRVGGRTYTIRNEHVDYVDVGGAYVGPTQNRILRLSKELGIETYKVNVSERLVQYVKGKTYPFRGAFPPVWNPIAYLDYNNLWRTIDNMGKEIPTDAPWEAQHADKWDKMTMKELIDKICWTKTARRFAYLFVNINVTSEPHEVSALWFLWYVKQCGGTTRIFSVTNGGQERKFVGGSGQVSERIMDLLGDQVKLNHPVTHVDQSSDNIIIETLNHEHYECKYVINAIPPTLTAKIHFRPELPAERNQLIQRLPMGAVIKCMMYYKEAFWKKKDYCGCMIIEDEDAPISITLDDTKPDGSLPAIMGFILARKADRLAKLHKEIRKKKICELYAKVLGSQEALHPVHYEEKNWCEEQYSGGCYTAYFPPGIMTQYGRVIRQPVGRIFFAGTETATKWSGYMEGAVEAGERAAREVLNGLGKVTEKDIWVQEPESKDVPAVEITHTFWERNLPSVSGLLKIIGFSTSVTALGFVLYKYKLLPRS

For `COc1c(OC2CCCCC2=O)ccc2c(C)cc(=O)oc12` (stereo unspecified), the Activity [1] was “Not Active”, the Ratio IC50 (Homo sapiens) was less than 0.31 and the IC50 [2] was 15.4 µM.

For `COc1cc(OC2CCCCC2=O)cc2oc(=O)ccc12` (stereo unspecified), the Activity [1] was “Not Active”, the Ratio IC50 (Homo sapiens) was less than 0.41 and the IC50 [2] was 20.4 µM.
